Like-named read-outs stand apart in the source and are kept apart here.
What was measured:
[1] = target: T1, acetylcholinesterase (AChE) (Electrophorus electricus, UniProt O42275); test: In vitro cholinesterase activity assay (Ellman), AChE; format: biochemical; conditions: for IC50: concentrations up to 125 μM, Mean ± SEM, read-out: IC50 Acetylcholine Esterase Mean ± SEM; for SI: selectivity index (BChE/AChE): ratio of IC50 BChE/AChE
T1 construct: purchased Sigma-Aldrich Co. (St. Louis, MO, USA)
Description: (§1) The reaction started with the addition of 10 μL of DTNB and 10 μL of Ach or Bch.
(§2) Briefly, the basis for this assay is the hydrolysis of acetylthiocholine by acetylcholinesterase, producing thiocholine that reacts with DTNB. […] Degrees of inhibition were calculated according to […] wherein E and S represent enzyme activities in the presence and absence of a test sample, respectively.
(§3) The compounds of Table 1 were evaluated for anti-Alzheimer activity. In this regard, inhibitory activity against AChE (acetylcholinesterase) and BChE (butyrylcholinesterase), which lyse acetylcholine in the central nervous system, was measured according to the Experimental Method to calculate IC(inhibition concentrations)50 values.

[2] = system: NIH3T3 cells; test: MTT cytotoxicity assay, normal cell line NIH3T3; format: cell-based; conditions: NIH3T3 mouse embryo fibroblast, 48 hours incubation
Description: (§4) The normal cell line NIH3T3 (mouse embryo fibroblast cell-line) and the cancerous cell line B16F10 (mouse melanoma cell-line) were separately grown in 96-well plates and incubated for 48 hours with predetermined concentrations of each of the compounds. After additional incubation with MTT, absorbance at 550 nm was read using a microplate reader. Absorbance is an index accounting for a number of viable cells and was used to calculate cell proliferation rates according to the following formula. All experiments were conducted three times for reproducibility. Cell proliferation rate (%)=OD550(sample)/OD550(control)
(§5) Then, LD50 (Lethal Dose 50) values were calculated on the basis of changes in the cell proliferation rate.

[3] = system: B16F10 cells; test: MTT cytotoxicity assay, cancerous cell line B16F10; format: cell-based; conditions: B16F10 mouse melanoma, 48 hours incubation
Description: as §4, §5

[4] = target: T2, BACE1 (Homo sapiens, UniProt P56817); test: BACE1 enzyme kinetics (Dixon plot and Lineweaver plot); format: biochemical
T2 construct: purchased Pan Vera Co. (Madison, WI, USA)
Description: A BACE1 fluorescence resonance energy transfer (FRET) assay kit (β-secretase, recombinant human enzyme) was purchased from Pan Vera Co. (Madison, WI, USA). The assay was carried out according to the manual provided, with a modification made thereto as described by Jung et al. (Jung et al., Biol Pharm Bull, 2010, 33:267-272). Quercetin was used as a positive control.
In addition, an enzyme kinetics experiment was conducted using the Lineweaver plot and Dixon plot (see FIG. 7) in order to examine the BACE1 inhibition mechanism of the novel compound (Compound 2). […] The results of the experiment indicate that the novel compound of the present disclosure is a very potent inhibitor against BACE1.

[5] = target: T3, butyrylcholinesterase (BChE) (Equus caballus, UniProt P81908); test: In vitro cholinesterase activity assay (Ellman), BChE; format: biochemical; conditions: concentrations up to 125 μM; Mean ± SEM; read-out: IC50 Butyrylcholine esterase Mean ± SEM
T3 construct: horse serum butyrylcholinesterase (BChE, EC3.1.1.8); purchased Sigma-Aldrich Co. (St. Louis, MO, USA); host or cells: horse serum
Description: as §1, §2, §3

[6] = target: T1, acetylcholinesterase (AChE); test: AChE enzyme kinetics (Dixon plot and Lineweaver plot); format: biochemical
Description: as §1, §2

[7] = target: T3, butyrylcholinesterase (BChE); test: BChE enzyme kinetics (Dixon plot and Lineweaver plot); format: biochemical
Description: as §1, §2

[8] = listed as 3-[2-(1-acetylcycloproply)-1-propenyl]-5-methyl-2-cyclopenten-1-one

T3 sequence (P81908 whole entry): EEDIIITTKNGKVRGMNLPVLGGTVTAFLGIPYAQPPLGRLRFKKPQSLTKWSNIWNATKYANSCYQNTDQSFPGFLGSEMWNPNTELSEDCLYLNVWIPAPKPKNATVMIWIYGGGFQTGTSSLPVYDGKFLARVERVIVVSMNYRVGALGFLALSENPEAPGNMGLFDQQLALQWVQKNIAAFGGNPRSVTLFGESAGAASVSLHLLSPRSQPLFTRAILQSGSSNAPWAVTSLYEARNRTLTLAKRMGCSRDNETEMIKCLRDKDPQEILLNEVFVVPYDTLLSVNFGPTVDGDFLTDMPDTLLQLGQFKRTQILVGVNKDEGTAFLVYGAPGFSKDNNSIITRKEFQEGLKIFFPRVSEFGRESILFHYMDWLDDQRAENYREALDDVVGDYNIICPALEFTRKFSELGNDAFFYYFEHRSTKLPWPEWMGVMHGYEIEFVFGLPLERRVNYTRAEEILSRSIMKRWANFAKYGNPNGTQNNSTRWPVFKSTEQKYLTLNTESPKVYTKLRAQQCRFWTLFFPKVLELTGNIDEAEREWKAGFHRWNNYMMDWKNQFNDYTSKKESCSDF
T2 sequence (P56817 46-501): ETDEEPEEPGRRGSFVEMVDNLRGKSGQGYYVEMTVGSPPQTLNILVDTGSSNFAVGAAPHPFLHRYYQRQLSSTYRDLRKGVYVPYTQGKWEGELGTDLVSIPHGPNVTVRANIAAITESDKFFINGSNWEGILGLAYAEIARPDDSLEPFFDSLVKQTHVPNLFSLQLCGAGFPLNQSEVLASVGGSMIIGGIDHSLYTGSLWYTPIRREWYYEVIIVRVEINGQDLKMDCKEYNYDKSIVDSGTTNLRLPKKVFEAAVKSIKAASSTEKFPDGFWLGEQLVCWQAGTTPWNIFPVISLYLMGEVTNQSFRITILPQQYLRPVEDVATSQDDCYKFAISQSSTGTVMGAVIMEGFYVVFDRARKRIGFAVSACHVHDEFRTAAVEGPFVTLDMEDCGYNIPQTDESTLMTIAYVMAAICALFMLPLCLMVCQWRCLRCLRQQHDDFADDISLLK
T1 sequence (O42275 24-633): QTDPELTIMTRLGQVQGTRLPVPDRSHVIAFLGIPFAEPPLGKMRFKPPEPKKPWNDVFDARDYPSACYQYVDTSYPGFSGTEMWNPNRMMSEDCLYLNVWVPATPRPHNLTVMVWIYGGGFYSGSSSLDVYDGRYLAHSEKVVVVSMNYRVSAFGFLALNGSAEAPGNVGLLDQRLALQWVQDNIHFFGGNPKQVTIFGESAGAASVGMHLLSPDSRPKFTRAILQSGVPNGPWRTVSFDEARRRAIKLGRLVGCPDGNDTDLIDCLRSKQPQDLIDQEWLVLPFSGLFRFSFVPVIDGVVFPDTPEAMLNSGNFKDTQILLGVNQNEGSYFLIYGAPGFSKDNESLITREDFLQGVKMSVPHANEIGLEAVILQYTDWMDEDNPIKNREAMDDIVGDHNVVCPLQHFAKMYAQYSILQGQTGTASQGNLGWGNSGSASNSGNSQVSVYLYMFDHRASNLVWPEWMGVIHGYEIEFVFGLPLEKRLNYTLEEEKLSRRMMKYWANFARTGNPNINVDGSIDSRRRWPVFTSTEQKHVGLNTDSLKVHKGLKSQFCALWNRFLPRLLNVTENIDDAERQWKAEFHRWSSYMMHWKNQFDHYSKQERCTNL

COc1ccc2cc3[n+](cc2c1OC)CCc1cc2c(cc1-3)OCO2 [Berberine, reference compound]
IC50 [1]: 0.39 ± 0.01 µM

CC(=O)C1(/C(C)=C\C2=CC(=O)C(C)C2)CC1 (stereo not drawn) [Compound 2, 3-[2-(1-Acetylcyclopropyl)-1-propenyl)-5-methyl-2-cyclopenten-1-one]
LD50 Normal cell NIH3T3 [2]: 1,550 μM | LD50 Normal cell NIH3T3 [2, 8]: 1,550 ± 100 μM | LD50 Cancer cell B16F10 [3]: 688 µM | LD50 Cancer cell B16F10 [3, 8]: 688 ± 17 µM | SI: selectivity index (BChE/AChE) [1]: 0.83 | Ki [4]: 19 µM | Inhibition type BACE1 [4, 8]: Mixed-type | Inhibition type BACE1 ([4]; listed as novel compound): mixed type

Cc1cc2c(c(C)c1CCO)C(=O)[C@](C)(CO)C2 [Compound 3, (2S)-pterosin A]
LD50 Normal cell NIH3T3 [2]: >5,000 μM | LD50 Cancer cell B16F10 ([3]; listed as (2S)-Pterosin A): 522 ± 25 µM | LD50 Cancer cell B16F10 ([3]; listed as pterosin A): 522 ± 25 µM | SI: selectivity index (BChE/AChE) [1]: 1.2

Cc1cc2c(c(C)c1CCO)C(=O)[C@H](C)C2 [Compound 4, (2R)-pterosin B]
LD50 Normal cell NIH3T3 ([2]; listed as (2,R)-Pterosin B): 3,110 ± 130 μM | LD50 Normal cell NIH3T3 ([2]; listed as pterosin B): 3,110±130 μM | LD50 Cancer cell B16F10 [3]: >5,000 μM | IC50 [1]: 16.2 ± 1 µM | SI: selectivity index (BChE/AChE) [1]: 3.0 | IC50 [5]: 48.1 ± 0.59 µM | Inhibition type BACE1 [4]: noncompetitive type | Ki [4]: 38.3 µM | Inhibition type BACE1 ([4]; listed as (2R)-Pterosin B): Noncompetitive | Inhibition type Acetylcholinesterase [6]: mixed type | Ki [6]: 12.1 µM | Inhibition type Acetylcholinesterase ([6]; listed as (2R)-Pterosin B): Mixed-type | Inhibition type Butyrylcholinesterase [7]: noncompetitive type | Ki [7]: 53.5 µM | Inhibition type Butyrylcholinesterase ([7]; listed as (2R)-Pterosin B): Noncompetitive

Cc1cc2c(c(C)c1CCO)C(=O)[C@H](C)[C@@H]2O [Compound 5, (2R,3S)-pterosin C]
LD50 Normal cell NIH3T3 [2]: >5,000 μM | LD50 Cancer cell B16F10 [3]: >5,000 μM

Cc1cc2c(c(C)c1CCO)C(=O)[C@@H](C)[C@@H]2O [Compound 6, (2S,3S)-pterosin C]
LD50 Normal cell NIH3T3 [2]: >5,000 μM | LD50 Cancer cell B16F10 [3]: >5,000 μM

Cc1cc2c(c(C)c1CCO)C(=O)[C@H](C)[C@H]2O [Compound 7, (2R,3R)-pterosin C]
LD50 Normal cell NIH3T3 [2]: >5,000 μM | LD50 Cancer cell B16F10 [3]: >5,000 μM | IC50 [1]: 23.2 ± 4.6 µM | SI: selectivity index (BChE/AChE) [1]: 0.89 | IC50 [5]: 20.3 ± 0.88 µM | Inhibition type BACE1 [4]: mixed type | Ki [4]: 27.6 µM | Inhibition type BACE1 ([4]; listed as (2R,3R)-Pterosin C): Mixed-type | Inhibition type Acetylcholinesterase [6]: noncompetitive type | Ki [6]: 29.6 µM | Inhibition type Acetylcholinesterase ([6]; listed as (2R,3R)-Pterosin C): Noncompetitive | Inhibition type Butyrylcholinesterase [7]: mixed type | Ki [7]: 4.77 µM | Inhibition type Butyrylcholinesterase ([7]; listed as (2R,3R)-Pterosin C): Mixed-type

Cc1cc2c(c(C)c1CCO)C(=O)C(C)(C)[C@@H]2O [Compound 9, (3R)-Pterosin D]
LD50 Normal cell NIH3T3 [2]: >5,000 μM | LD50 Cancer cell B16F10 [3]: >5,000 μM | IC50 [1]: 68.7 ± 3.7 µM | IC50 [5]: > 125 µM

Cc1c(CCO)c(CO)cc2c1C(=O)[C@@H](C)C2 [Compound 10, (2S)-pterosin P]
LD50 Normal cell NIH3T3 [2]: >5,000 μM | LD50 Cancer cell B16F10 [3]: >5,000 μM | IC50 [1]: 17.8 ± 0.62 µM | SI: selectivity index (BChE/AChE) [1]: 3.1 | IC50 [5]: 55.9 ± 5.6 µM

Cc1cc2c(c(C)c1CCO)C(=O)C(C)(C)C2 [Compound 11, pterosin Z]
LD50 Normal cell NIH3T3 ([2]; listed as PterosinZ): 553 ± 37 µM | LD50 Normal cell NIH3T3 ([2]; listed as pterosin Z): 553 ± 37 µM | LD50 Cancer cell B16F10 ([3]; listed as PterosinZ): 618 ± 71 µM | LD50 Cancer cell B16F10 ([3]; listed as pterosin Z): 618 ± 71 µM | IC50 [1]: 46.5 ± 3.4 µM | SI: selectivity index (BChE/AChE) [1]: 1.7 | IC50 [5]: 80.1 ± 6.8 µM

Cc1cc2c(c(C)c1CCO)C(=O)[C@](C)(COC1O[C@H](CO)[C@@H](O)[C@H](O)[C@H]1O)C2 (stereo partly drawn) [Compound 13, (2S)-pteroside A2]
LD50 Normal cell NIH3T3 [2]: >5,000 μM | LD50 Cancer cell B16F10 [3]: >5,000 μM | IC50 [1]: 39.3 ± 1.9 µM | SI: selectivity index (BChE/AChE) [1]: 3.0

— patent US12678413B2, “Compositions containing pterosin compound and derivatives thereof active ingredients for prevention or treatment of degenerative brain diseases” (priority 2017, dated 2026)
